The record followed here is ChEMBL document CHEMBL1130869, “Peptide-based inhibitors of the hepatitis C virus serine protease” (Bioorg Med Chem Lett, 1998).

Starred links: 1 amine or outer side, 2 acyl side, 3 side chain; linkers in the order of their positions; H or OH if unused. Non-standard residues stand in square brackets, D forms with d. Residues, ends and D or L forms follow the SMILES beside them. Pen = CC(C)(S)[C@H](N)C(=O)O; Suc = O=C(CCC(=O)[*:2])[*:1]; Tle = CC(C)(C)[C@H](N)C(=O)O; Dap = NC[C@H](N)C(=O)O

The target in the first experiment is Hepatitis C virus serine protease, NS3/NS4A (Hepatitis C virus, UniProt A3EZI9+D2K2A8). In words: The apparent Ki value against NS3-4Apep protease. The following applies: read-out: Ki app. The class given is protein-complex assay, Hepacivirus hominis.
Hepatitis C virus serine protease, NS3/NS4A, sequence (D2K2A8 whole entry): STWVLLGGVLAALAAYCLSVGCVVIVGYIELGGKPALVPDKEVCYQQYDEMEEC
Hepatitis C virus serine protease, NS3/NS4A, sequence (A3EZI9 whole entry): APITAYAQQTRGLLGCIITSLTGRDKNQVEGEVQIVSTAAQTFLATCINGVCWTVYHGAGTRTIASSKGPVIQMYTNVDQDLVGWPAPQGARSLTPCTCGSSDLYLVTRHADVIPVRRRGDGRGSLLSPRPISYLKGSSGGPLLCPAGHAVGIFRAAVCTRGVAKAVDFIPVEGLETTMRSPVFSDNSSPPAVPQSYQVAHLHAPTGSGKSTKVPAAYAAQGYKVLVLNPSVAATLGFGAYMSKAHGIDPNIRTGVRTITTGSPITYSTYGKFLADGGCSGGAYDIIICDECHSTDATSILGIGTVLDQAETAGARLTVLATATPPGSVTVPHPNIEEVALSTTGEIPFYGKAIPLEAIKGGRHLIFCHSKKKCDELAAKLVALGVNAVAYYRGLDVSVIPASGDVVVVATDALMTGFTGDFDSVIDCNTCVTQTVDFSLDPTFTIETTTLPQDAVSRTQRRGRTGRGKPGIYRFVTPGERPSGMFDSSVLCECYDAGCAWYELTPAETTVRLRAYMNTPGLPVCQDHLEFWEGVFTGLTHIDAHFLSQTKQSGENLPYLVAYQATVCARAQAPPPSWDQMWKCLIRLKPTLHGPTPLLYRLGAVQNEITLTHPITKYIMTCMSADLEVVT
For `CC[C@H](C)[C@H](NC(=O)C(CC(=O)O)NC(=O)[C@H](CC(=O)O)NC(C)=O)C(=O)N[C@H](C(=O)N1CCC[C@H]1C(=O)N[C@@H](CS)C(=O)O)C(C)C` (single isomer, unassigned), the Ki was 0.6 µM. For the compound H-DDIVPC-OH, the Ki was determined as 14 µM.

A further experiment deals with NS3 (Hepatitis C virus, UniProt A3EZJ3). In words: Inhibitory activity against NS3-4A pep protease. Details: species or system Hepacivirus hominis.
NS3, sequence (A3EZJ3 whole entry): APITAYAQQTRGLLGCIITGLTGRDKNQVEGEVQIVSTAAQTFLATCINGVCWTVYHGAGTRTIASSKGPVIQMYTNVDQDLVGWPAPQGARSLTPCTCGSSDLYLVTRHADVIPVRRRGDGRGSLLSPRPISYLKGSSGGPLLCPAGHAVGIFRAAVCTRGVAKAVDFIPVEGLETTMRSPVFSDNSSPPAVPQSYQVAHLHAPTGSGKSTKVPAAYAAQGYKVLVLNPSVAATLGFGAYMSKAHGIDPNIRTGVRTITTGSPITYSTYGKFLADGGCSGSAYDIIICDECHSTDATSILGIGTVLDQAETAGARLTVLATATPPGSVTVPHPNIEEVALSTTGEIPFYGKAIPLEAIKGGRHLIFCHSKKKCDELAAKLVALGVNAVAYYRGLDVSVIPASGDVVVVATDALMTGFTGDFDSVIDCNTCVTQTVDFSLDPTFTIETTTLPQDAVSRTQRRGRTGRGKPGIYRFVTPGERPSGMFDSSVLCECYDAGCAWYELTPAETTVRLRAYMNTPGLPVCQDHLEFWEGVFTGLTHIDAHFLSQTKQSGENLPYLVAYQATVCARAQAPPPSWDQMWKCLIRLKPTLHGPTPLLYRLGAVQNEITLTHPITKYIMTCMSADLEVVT
Conditions: not given
`CC[C@H](C)[C@H](NC(=O)[C@@H](NC(=O)[C@H](CC(=O)O)NC(C)=O)C(C)C)C(=O)N[C@H](C(=O)N1CCC[C@H]1C(=O)N[C@@H](CS)C(=O)O)C(C)C` displayed an IC50 of 52 µM.

In turn, `CC[C@H](C)[C@H](NC(=O)[C@H](CC(=O)O)NC(=O)CCC(=O)O)C(=O)N[C@H](C(=O)N1CCC[C@H]1C(=O)N[C@@H](CS)C(=O)O)C(C)C` registered an IC50 of 33 µM.

Turning to `CC[C@H](C)[C@H](NC(=O)[C@H](CC(=O)O)NC(=O)[C@H](C)NC(C)=O)C(=O)N[C@H](C(=O)N1CCC[C@H]1C(=O)N[C@@H](CS)C(=O)O)C(C)C`, the midpoint of inhibition, the IC50, lay at 200 µM. In turn, `CC[C@@H](C)[C@@H](NC(=O)[C@H](CC(=O)O)NC(=O)[C@H](CC(=O)O)NC(C)=O)C(=O)N[C@H](C(=O)N1CCC[C@H]1C(=O)N[C@@H](CS)C(=O)O)C(C)C` gave an IC50 of 800 µM.

As to `CC[C@H](C)[C@H](NC(=O)[C@H](CC(=O)O)NC(=O)[C@@H](CC(=O)O)NC(C)=O)C(=O)N[C@H](C(=O)N1CCC[C@H]1C(=O)N[C@@H](CS)C(=O)O)C(C)C`, half-maximal inhibition (IC50) was put at 40 µM. The compound `CC[C@H](C)[C@H](NC(=O)[C@H](CC(=O)O)NC(=O)[C@H](CC(=O)O)NC(C)=O)C(=O)N[C@H](C(=O)N1CCC[C@H]1C(=O)N[C@@H](CS)C(=O)O)C(C)C` [listing 1 of 2 here] yielded an IC50 of 28 µM. The IC50 values of the last two compounds are within 1.5-fold of each other. Take `CC[C@H](C)[C@H](NC(=O)[C@H](CC(=O)O)NC(=O)[C@H](CC(=O)O)NC(C)=O)C(=O)N[C@H](C(=O)N1CCC[C@H]1C(=O)N[C@@H](CS)C(=O)O)C(C)C` [listing 2 of 2 here]: the IC50 was over 1000 µM. For the compound `CC[C@H](C)[C@H](NC(=O)[C@H](CC(=O)O)NC(=O)[C@H](CC(=O)O)NC(C)=O)C(=O)N[C@H](C(=O)N1CCC[C@H]1C(=O)N[C@@H](CSC)C(=O)O)C(C)C` (Ac-DDIVPC(Me)-OH), 160 µM corresponded to half-maximal inhibition (IC50). Compound `CC[C@H](C)[C@H](NC(=O)[C@H](CC(=O)O)NC(=O)[C@H](CC(=O)O)NC(C)=O)C(=O)N[C@H](C(=O)N1CCC[C@H]1C(=O)N[C@@H](CN)C(=O)O)C(C)C` (Ac-DDIVP[Dap]-OH) registered a half-inhibitory concentration (IC50) of over 1000 µM. In the case of `CC[C@H](C)[C@H](NC(=O)[C@H](CC(=O)O)NC(=O)[C@H](CC(=O)O)NC(C)=O)C(=O)N[C@H](C(=O)N1CCC[C@H]1C(=O)N[C@H](C(=O)O)C(C)(C)S)C(C)C` (Ac-DDIVP[Pen]-OH), it took 630 µM to reach half-maximal inhibition (IC50).

The compound `CC[C@H](C)[C@H](NC(=O)[C@@H](NC(=O)[C@H](CC(=O)O)NC(C)=O)C(C)(C)C)C(=O)N[C@H](C(=O)N1CCC[C@H]1C(=O)N[C@@H](CS)C(=O)O)C(C)C` (Ac-D[Tle]IVPC-OH) gave an IC50 of 20 µM.

`CC[C@H](C)[C@H](NC(=O)CCC(=O)O)C(=O)N[C@H](C(=O)N1CCC[C@H]1C(=O)N[C@@H](CS)C(=O)O)C(C)C` (Suc-IVPC-OH) displayed an IC50 of 830 µM.

In turn, `CC[C@H](C)[C@H](NC(=O)C(CC(=O)O)NC(=O)[C@H](CC(=O)O)NC(C)=O)C(=O)N[C@H](C(=O)N1CCC[C@H]1C(=O)N[C@@H](CS)C(=O)O)C(C)C` (single isomer, unassigned) returned an IC50 of 4 µM. Same read-out and setting: the result for `CC[C@H](C)[C@H](NC(=O)[C@H](CC(=O)O)NC(=O)[C@H](CC(=O)O)NC(C)=O)C(=O)N[C@H](C(=O)N1CCC[C@H]1C(=O)NC(CS)C(=O)O)C(C)C` (single isomer, unassigned) reads 330 µM; that for `CC[C@H](C)[C@H](NC(=O)[C@H](CC(=O)O)NC(=O)[C@H](CC(=O)O)NC(C)=O)C(=O)NC(C(=O)N1CCC[C@H]1C(=O)N[C@@H](CS)C(=O)O)C(C)C` (single isomer, unassigned), 830 µM; that for `CC[C@H](C)[C@H](NC(=O)C(CC(=O)O)NC(=O)[C@H](C)NC(C)=O)C(=O)N[C@H](C(=O)N1CCC[C@H]1C(=O)N[C@@H](CS)C(=O)O)C(C)C` (single isomer, unassigned), 200 µM. In turn, `CC[C@H](C)[C@H](NC(=O)C(CC(=O)O)NC(=O)CCC(=O)O)C(=O)N[C@H](C(=O)N1CCC[C@H]1C(=O)N[C@@H](CS)C(=O)O)C(C)C` (single isomer, unassigned) displayed an IC50 of 76 µM. Against the preceding compound, the IC50 is about 2.6-fold lower. Turning to `CC[C@H](C)[C@H](NC(=O)C(NC(=O)[C@H](CC(=O)O)NC(C)=O)C(C)C)C(=O)N[C@H](C(=O)N1CCC[C@H]1C(=O)N[C@@H](CS)C(=O)O)C(C)C` (single isomer, unassigned), inhibition was half-maximal at 7.5 µM (IC50). Consider Ac-DAIVPC-OH, for which the IC50 was 140 µM. As to Ac-DDAVPC-OH, the half-inhibitory concentration (IC50) was 580 µM. Against the preceding compound, the IC50 is about 4.1-fold higher. With Ac-DDIAPC-OH, the 50% inhibitory concentration (IC50) was 890 µM. Against the preceding compound, the IC50 is about 1.5-fold higher. Same read-out and setting: the figure for Ac-DDIVAC-OH is 93 µM; for Ac-DDIVPA-OH it is 710 µM; for Ac-DDIVPM-OH it is 500 µM. In the case of Ac-DDIVPS-OH, the IC50 is over 1000 µM. For the compound Ac-DIVPC-OH, the IC50 was found to be 130 µM. Consider H-DDIVPC-OH, for which 71 µM corresponded to half-maximal inhibition (IC50). With H-GEAGDDIVPC-OH, the IC50 turned out to be 52 µM.

Usually IC50 stands for the midpoint of a concentration-inhibition curve.
